Reference: patent US12644133B2, “Methods and compositions to increase somatic cell nuclear transfer (SCNT) efficiency by removing histone H3-lysine trimethylation” (The Children's Medical Center Corporation, priority 2014, dated 2026)

System: H3K9me3
Assay: Immunostaining of H3K9me3 in SCNT embryos
Assay type: cell-based, mouse
Details: mRNA injected at 5 hpa; cumulus donor cells
Protocol: Somatic cell nuclear transfer was carried out as described previously (Matoba et al., 2011). Briefly, recipient MII oocytes were collected from superovulated adult BDF1 females by brief treatment with 300 U/ml bovine testicular hyaluronidase (Calbiochem). Isolated MII oocytes were enucleated in Hepes-buffered KSOM medium containing 7.5 μg/ml of cytochalasin B (Calbiochem #250233). The nuclei of donor cumulus cells or Sertoli cells were injected into the enucleated oocytes using a Piezo-driven micromanipulator (Primetech #PMM-150FU). MEF cells were fused with enucleated oocytes by inactivated Sendai virus envelope (HVJ-E; Ishihara Sangyo, Japan). After 1 h incubation in KSOM, reconstructed SCNT oocytes were activated by incubation in Ca-free KSOM containing 5 μg/ml cytochalasin B for 1 h and further cultured in KSOM with cytochalasin B for 4 h. Activated SCNT embryos were washed 5 h after the onset of SrCl2 treatment (hours post activation, hpa) and cultured in KSOM in a humidified atmosphere of 5% CO2 at 37.8° C. In some experiments, SCNT embryos were injected with ˜10 pl of water (control), 1800 ng/μl wild-type or mutant (H189A) Kdm4d mRNA at 5-6 hpa by using a Piezo-driven micromanipulator (Primetech). […] Preimplantation developmental rates were statistically analyzed by Student's T-test. […]

Kdm4d WT mRNA: in vitro transcribed full length mouse Kdm4d mRNA, encoding an H3K9me3-specific histone demethylase
reduction of H3K9me3 levels in SCNT embryos (in words): greatly reduced H3K9me3 levels
